Measurements from patent US20070099856A1, “Combined treatment with docetaxel and an epidermal growth factor receptor kinase inhibitor using an intermittent dosing regimen” (priority 2005, published 2007).

Key:
[1] = test system: patients with advanced solid tumors; test: Phase I dose escalation Arm B: DOC every 21 days plus erlotinib days 2-16; type: in vivo, human
Excerpt: (§1) One explanation is antagonism due to TKI-induced G1 arrest, reducing cell cycle phase-dependent activity of chemotherapy (see FIG. 1). We hypothesized that pharmacodynamic separation by intermittent delivery of HER1/EGFR TKI with chemotherapy might increase efficacy.
(§2) Erlotinib (TARCEVA™) was obtained from OSI Pharmaceuticals, Inc. Melville, N.Y.). Docetaxel (TAXOTERE®) is manufactured and sold by Aventis Pharmaceuticals Inc.

[2] = test system: patients with advanced solid tumors; test: Phase I dose escalation Arm A: DOC every 21 days plus weekly erlotinib days 2, 9, 16; type: in vivo, human
Excerpt: as §1, §2

NSCLC = details: first-line, in combination with standard chemotherapy, NSCLC phase III; cited from earlier work
[3] = test system: advanced, treatment-refractory NSCLC; details: monotherapy, phase III; cited from earlier work

Compound	Arm B MTD, DOC ([1]; IV every 21 days, combined with erlotinib 200 mg day 2-16)	Arm A MTD, DOC ([2]; IV every 21 days, combined with weekly erlotinib 600 mg)	Survival (NSCLC)	Arm B MTD, erlotinib ([1]; day 2-16, combined with DOC 70 mg/m^2)	Arm A MTD, erlotinib ([2]; weekly (days 2, 9, 16), combined with DOC 70 mg/m^2)	Survival [3]
CC(=O)O[C@@]12CO[C@@H]1C[C@H](O)[C@@]1(C)C(=O)[C@H](O)C3=C(C)[C@@H](OC(=O)[C@H](O)[C@@H](NC(=O)OC(C)(C)C)c4ccccc4)C[C@@](O)([C@@H](OC(=O)c4ccccc4)[C@H]21)C3(C)C [DOC, docetaxel]	70 mg/m^2	70 mg/m^2	–	–	–	–
C#Cc1cccc(Nc2ncnc3cc(OCCOC)c(OCCOC)cc23)c1 [erlotinib, [6,7-bis(2-methoxyethoxy)-4-quinazolin-4-yl]-(3-ethynylphenyl)amine]	–	–	did not improve survival	200 mg	600 mg	significantly prolonged survival
COc1cc2ncnc(Nc3ccc(F)c(Cl)c3)c2cc1OCCCN1CCOCC1 [gefitinib]	–	–	did not improve survival	–	–	–
